Experimental data published in US8129417B2, “Substituted octahydrocyclopenta[C]pyrrol-4-amines as calcium channel blockers” (Abbott Laboratories, priority 2008, dated 2012).

molecular target: human Cav2.2 (Homo sapiens, UniProt Q00975); assay: Assessment of calcium channel activity using FLIPR (Ca2+ influx in IMR32 cells); type: cell-based; settings: 60 minute pre-incubation with compound, 2 μM nifedipine, depolarized with 80 mM KCl
In short: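 IMR32 neuroblastoma cells seeded at 1-1.2×10^5 cells/well and grown 48 h at 37 °C before FLIPR Ca2+ influx read. Percent inhibition at each concentration vs no-inhibitor activity; IC50 by non-linear sigmoidal dose-response fit.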

human Cav2.2, sequence (Q00975 whole entry): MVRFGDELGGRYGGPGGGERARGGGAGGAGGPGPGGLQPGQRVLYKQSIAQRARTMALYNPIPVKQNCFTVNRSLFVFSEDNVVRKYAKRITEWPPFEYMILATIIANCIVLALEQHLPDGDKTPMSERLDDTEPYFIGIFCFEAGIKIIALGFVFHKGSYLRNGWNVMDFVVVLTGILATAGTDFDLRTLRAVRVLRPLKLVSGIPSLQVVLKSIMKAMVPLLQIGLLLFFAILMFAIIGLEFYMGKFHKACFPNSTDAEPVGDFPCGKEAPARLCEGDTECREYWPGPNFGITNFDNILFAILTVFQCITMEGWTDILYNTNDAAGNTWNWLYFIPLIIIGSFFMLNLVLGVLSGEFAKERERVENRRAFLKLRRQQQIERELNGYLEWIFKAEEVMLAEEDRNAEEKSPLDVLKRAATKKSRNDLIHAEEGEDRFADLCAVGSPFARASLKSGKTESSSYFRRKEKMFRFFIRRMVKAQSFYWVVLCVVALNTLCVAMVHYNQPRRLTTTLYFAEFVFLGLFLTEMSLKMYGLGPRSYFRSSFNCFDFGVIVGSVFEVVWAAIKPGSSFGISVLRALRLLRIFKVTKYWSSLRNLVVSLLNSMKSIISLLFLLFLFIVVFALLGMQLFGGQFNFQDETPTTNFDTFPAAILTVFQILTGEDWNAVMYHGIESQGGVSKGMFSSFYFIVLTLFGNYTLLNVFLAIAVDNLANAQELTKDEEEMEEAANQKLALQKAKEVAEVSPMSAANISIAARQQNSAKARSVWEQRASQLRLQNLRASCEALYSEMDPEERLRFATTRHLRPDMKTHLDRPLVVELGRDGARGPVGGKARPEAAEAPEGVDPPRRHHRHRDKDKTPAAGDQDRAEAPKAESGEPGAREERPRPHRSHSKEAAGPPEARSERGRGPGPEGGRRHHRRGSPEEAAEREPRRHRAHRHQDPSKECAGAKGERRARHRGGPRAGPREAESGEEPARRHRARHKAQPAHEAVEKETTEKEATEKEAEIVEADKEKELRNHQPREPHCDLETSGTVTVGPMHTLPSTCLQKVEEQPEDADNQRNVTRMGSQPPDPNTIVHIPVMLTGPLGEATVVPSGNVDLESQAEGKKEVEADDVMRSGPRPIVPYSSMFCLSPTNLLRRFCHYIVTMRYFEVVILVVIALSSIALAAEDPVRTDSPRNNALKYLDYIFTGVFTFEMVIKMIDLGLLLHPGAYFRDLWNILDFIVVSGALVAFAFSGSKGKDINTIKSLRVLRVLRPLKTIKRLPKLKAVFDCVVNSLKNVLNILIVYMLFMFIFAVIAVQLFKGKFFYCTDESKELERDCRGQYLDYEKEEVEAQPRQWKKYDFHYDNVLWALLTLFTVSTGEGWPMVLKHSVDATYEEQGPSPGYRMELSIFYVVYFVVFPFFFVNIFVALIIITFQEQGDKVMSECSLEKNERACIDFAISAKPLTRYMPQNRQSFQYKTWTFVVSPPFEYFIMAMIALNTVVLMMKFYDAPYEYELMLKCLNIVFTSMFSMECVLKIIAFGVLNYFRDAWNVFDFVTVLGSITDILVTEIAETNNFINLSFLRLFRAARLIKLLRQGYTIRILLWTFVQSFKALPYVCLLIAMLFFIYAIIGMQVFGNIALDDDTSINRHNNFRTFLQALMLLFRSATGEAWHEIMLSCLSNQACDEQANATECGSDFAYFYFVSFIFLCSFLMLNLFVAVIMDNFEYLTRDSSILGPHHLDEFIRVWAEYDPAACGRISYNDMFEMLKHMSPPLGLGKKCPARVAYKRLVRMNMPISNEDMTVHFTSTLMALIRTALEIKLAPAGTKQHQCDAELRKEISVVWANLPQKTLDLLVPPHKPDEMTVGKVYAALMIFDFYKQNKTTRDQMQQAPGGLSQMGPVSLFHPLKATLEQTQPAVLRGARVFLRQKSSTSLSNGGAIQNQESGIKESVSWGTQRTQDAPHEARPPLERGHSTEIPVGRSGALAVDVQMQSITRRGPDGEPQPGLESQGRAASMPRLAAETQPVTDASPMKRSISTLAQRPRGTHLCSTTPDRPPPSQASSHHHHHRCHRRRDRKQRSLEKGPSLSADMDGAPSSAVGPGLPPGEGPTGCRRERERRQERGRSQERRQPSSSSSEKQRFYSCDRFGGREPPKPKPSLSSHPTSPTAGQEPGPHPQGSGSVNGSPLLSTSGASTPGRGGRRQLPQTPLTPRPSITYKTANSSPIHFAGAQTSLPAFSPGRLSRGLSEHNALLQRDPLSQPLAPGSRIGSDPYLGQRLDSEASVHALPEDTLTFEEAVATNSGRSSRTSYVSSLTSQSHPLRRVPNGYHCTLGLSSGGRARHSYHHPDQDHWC
human Cav2.2, sequence (P54289 25-946 partner limits assumed): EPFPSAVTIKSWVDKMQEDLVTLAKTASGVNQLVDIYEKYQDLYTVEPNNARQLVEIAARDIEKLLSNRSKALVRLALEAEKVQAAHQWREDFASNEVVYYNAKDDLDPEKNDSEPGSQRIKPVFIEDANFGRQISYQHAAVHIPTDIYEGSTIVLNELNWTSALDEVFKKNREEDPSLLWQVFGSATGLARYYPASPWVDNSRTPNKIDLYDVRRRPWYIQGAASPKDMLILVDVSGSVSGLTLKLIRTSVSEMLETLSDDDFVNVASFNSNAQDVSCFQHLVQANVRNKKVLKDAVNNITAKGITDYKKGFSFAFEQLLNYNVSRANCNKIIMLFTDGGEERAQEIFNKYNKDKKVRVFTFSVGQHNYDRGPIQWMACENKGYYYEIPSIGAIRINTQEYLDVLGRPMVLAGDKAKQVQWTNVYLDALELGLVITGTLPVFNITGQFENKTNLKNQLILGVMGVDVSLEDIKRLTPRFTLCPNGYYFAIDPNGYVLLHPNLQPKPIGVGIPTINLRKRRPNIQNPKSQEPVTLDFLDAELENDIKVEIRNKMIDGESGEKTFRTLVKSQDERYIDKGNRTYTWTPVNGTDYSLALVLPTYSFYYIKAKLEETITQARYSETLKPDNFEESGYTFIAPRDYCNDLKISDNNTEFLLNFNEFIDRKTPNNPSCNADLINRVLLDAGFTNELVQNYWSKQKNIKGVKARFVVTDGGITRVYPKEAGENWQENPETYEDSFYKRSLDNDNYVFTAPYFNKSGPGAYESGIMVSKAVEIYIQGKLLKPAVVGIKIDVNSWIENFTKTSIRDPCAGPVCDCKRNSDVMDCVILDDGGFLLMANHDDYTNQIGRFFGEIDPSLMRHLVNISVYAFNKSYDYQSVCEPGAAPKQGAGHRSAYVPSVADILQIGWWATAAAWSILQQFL
human Cav2.2, sequence (P54289 947-1103 partner limits assumed): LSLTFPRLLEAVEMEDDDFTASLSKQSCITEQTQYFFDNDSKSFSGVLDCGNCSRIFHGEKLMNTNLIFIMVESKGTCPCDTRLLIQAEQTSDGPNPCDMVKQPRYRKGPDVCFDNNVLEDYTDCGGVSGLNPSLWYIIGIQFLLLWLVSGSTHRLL
human Cav2.2, sequence (P54284 whole entry partner): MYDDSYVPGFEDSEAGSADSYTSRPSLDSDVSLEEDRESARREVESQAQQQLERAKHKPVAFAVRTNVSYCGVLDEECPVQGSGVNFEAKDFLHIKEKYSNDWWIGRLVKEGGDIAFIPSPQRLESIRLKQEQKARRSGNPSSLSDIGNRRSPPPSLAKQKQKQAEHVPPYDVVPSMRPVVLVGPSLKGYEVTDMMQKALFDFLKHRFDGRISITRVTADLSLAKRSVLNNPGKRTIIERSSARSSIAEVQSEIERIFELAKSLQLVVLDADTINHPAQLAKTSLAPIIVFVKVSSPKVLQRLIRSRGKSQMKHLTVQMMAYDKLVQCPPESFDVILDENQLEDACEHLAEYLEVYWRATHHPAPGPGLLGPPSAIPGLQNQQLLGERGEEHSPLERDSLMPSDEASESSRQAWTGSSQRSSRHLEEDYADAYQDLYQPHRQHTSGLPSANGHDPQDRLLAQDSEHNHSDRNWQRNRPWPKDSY

SMILES | IC50 [nM]
CCN(C(=O)OC(C)(C)C)[C@@H](CC(C)C)C(=O)N[C@H]1CC[C@@H]2CN(Cc3cccc(C(F)(F)F)c3)C[C@@H]21 [Example 310, tert-butyl ethyl((S)-4-methyl-1-oxo-1-((3aR,4S,6aS)-2-(3-(trifluoromethyl)benzyl)octahydrocyclopenta[c]pyrrol-4-ylamino)pentan-2-yl)carbamate] | 680
CCC[C@@H](C(=O)N[C@H]1CC[C@@H]2CN(Cc3cccc(C(F)(F)F)c3)C[C@@H]21)N(C)C(=O)OC(C)(C)C [Example 313, tert-butyl methyl((S)-1-oxo-1-((3aR,4S,6aS)-2-(3-(trifluoromethyl)benzyl)octahydrocyclopenta[c]pyrrol-4-ylamino)pentan-2-yl)carbamate] | 2100
CCC[C@@H](C(=O)N[C@H]1CC[C@@H]2CN(Cc3ccc(C(F)(F)F)cc3)C[C@@H]21)N(C)C(=O)OC(C)(C)C [Example 314, tert-butyl methyl((S)-1-oxo-1-((3aR,4S,6aS)-2-(4-(trifluoromethyl)benzyl)octahydrocyclopenta[c]pyrrol-4-ylamino)pentan-2-yl)carbamate] | 2150
CCC[C@@H](C(=O)N[C@@H]1CC[C@H]2CN(Cc3ccc(C(F)(F)F)cc3)C[C@H]21)N(C)C(=O)OC(C)(C)C [Example 317, tert-butyl methyl((S)-1-oxo-1-((3aS,4R,6aR)-2-(4-(trifluoromethyl)benzyl)octahydrocyclopenta[c]pyrrol-4-ylamino)pentan-2-yl)carbamate] | 900
CC(C)C[C@@H](C(=O)N[C@@H]1CC[C@H]2CN(S(=O)(=O)c3cccc(C(F)(F)F)c3)C[C@H]21)N1CCOCC1 [Example 319, (2S)-4-methyl-2-morpholin-4-yl-N-((3aS,4R,6aR)-2-{[3-(trifluoromethyl)phenyl]sulfonyl}octahydrocyclopenta[c]pyrrol-4-yl)pentanamide] | 1210
CC(C)C[C@@H](C(=O)N[C@@H]1CC[C@H]2CN(S(=O)(=O)c3cccc(C(F)(F)F)c3)C[C@H]21)N1CCCC1 [Example 320, (2S)-4-methyl-2-pyrrolidin-1-yl-N-((3aS,4R,6aR)-2-{[3-(trifluoromethyl)phenyl]sulfonyl}octahydrocyclopenta[c]pyrrol-4-yl)pentanamide] | 700
CC(C)C[C@@H](C(=O)N[C@@H]1CC[C@H]2CN(S(=O)(=O)c3cccc(C(F)(F)F)c3)C[C@H]21)N1CCCCC1 [Example 321, (2S)-4-methyl-2-piperidin-1-yl-N-((3aS,4R,6aR)-2-{[3-(trifluoromethyl)phenyl]sulfonyl}octahydrocyclopenta[c]pyrrol-4-yl)pentanamide] | 440
CC(C)C[C@@H](C(=O)N[C@H]1CC[C@@H]2CN(S(=O)(=O)c3cccc(C(F)(F)F)c3)C[C@@H]21)N(C)C(=O)OC(C)(C)C [Example 322, tert-butyl methyl((S)-4-methyl-1-oxo-1-((3aR,4S,6aS)-2-(3-(trifluoromethyl)phenylsulfonyl)octahydrocyclopenta[c]pyrrol-4-ylamino)pentan-2-yl)carbamate] | 700
CCN(C(=O)OC(C)(C)C)[C@@H](CC(C)C)C(=O)N[C@H]1CC[C@@H]2CN(S(=O)(=O)c3cccc(C(F)(F)F)c3)C[C@@H]21 [Example 323, tert-butyl ethyl((S)-4-methyl-1-oxo-1-((3aR,4S,6aS)-2-(3-(trifluoromethyl)phenylsulfonyl)octahydrocyclopenta[c]pyrrol-4-ylamino)pentan-2-yl)carbamate] | 200
CC(C)C[C@@H](C(=O)N[C@@H]1CC[C@H]2CN(S(=O)(=O)c3ccc(C(F)(F)F)cc3)C[C@H]21)N(C)C(=O)OC(C)(C)C [Example 324, tert-butyl methyl((S)-4-methyl-1-oxo-1-((3aS,4R,6aR)-2-(4-(trifluoromethyl)phenylsulfonyl)octahydrocyclopenta[c]pyrrol-4-ylamino)pentan-2-yl)carbamate] | 690
CC(C)C[C@@H](C(=O)N[C@@H]1CC[C@H]2CN(S(=O)(=O)c3cccc(C(F)(F)F)c3)C[C@H]21)N(C)C(=O)OC(C)(C)C [Example 325, tert-butyl methyl((S)-4-methyl-1-oxo-1-((3aS,4R,6aR)-2-(3-(trifluoromethyl)phenylsulfonyl)octahydrocyclopenta[c]pyrrol-4-ylamino)pentan-2-yl)carbamate] | 250
CC(C)C[C@@H](C(=O)N[C@@H]1CC[C@H]2CN(S(=O)(=O)c3ccc(F)cc3)C[C@H]21)N(C)C(=O)OC(C)(C)C [Example 326, tert-butyl(S)-1-((3aS,4R,6aR)-2-(4-fluorophenylsulfonyl)octahydrocyclopenta[c]pyrrol-4-ylamino)-4-methyl-1-oxopentan-2-yl(methyl)carbamate] | 1460
CC(C)C[C@@H](C(=O)N[C@@H]1CC[C@H]2CN(S(=O)(=O)c3ccc(F)c(C(F)(F)F)c3)C[C@H]21)N(C)C(=O)OC(C)(C)C [Example 327, tert-butyl(S)-1-((3aS,4R,6aR)-2-(4-fluoro-3-(trifluoromethyl)phenylsulfonyl)octahydrocyclopenta[c]pyrrol-4-ylamino)-4-methyl-1-oxopentan-2-yl(methyl)carbamate] | 1830
CC(C)C[C@@H](C(=O)N[C@@H]1CC[C@@H]2CN(S(=O)(=O)c3ccc(C(F)(F)F)cc3)C[C@@H]21)N(C)C(=O)OC(C)(C)C [Example 329, tert-butyl methyl((S)-4-methyl-1-oxo-1-((3aR,4R,6aS)-2-(4-(trifluoromethyl)phenylsulfonyl)octahydrocyclopenta[c]pyrrol-4-ylamino)pentan-2-yl)carbamate] | 2600
CCC[C@@H](C(=O)N[C@@H]1CC[C@H]2CN(S(=O)(=O)c3ccc(F)cc3)C[C@H]21)N(C)C(=O)OC(C)(C)C [Example 330, tert-butyl(S)-1-((3aS,4R,6aR)-2-(4-fluorophenylsulfonyl)octahydrocyclopenta[c]pyrrol-4-ylamino)-1-oxopentan-2-yl(methyl)carbamate] | 1110
CCC[C@@H](C(=O)N[C@@H]1CC[C@H]2CN(S(=O)(=O)c3ccc(C(F)(F)F)cc3)C[C@H]21)N(C)C(=O)OC(C)(C)C [Example 331, tert-butyl methyl((S)-1-oxo-1-((3aS,4R,6aR)-2-(4-(trifluoromethyl)phenylsulfonyl)octahydrocyclopenta[c]pyrrol-4-ylamino)pentan-2-yl)carbamate] | 750
CC[C@H](C)[C@@H](C(=O)N[C@H]1CC[C@@H]2CN(S(=O)(=O)c3cccc(C(F)(F)F)c3)C[C@@H]21)N(C)C(=O)OC(C)(C)C [Example 332, tert-butyl methyl((2S,3S)-3-methyl-1-oxo-1-((3aR,4S,6aS)-2-(3-(trifluoromethyl)phenylsulfonyl)octahydrocyclopenta[c]pyrrol-4-ylamino)pentan-2-yl)carbamate] | 480
CC[C@H](C)[C@@H](C(=O)N[C@H]1CC[C@@H]2CN(S(=O)(=O)c3ccc(C(F)(F)F)cc3)C[C@@H]21)N(C)C(=O)OC(C)(C)C [Example 333, tert-butyl methyl((2S,3S)-3-methyl-1-oxo-1-((3aR,4S,6aS)-2-(4-(trifluoromethyl)phenylsulfonyl)octahydrocyclopenta[c]pyrrol-4-ylamino)pentan-2-yl)carbamate] | 570
CC[C@H](C)[C@@H](C(=O)N[C@@H]1CC[C@H]2CN(S(=O)(=O)c3cccc(C(F)(F)F)c3)C[C@H]21)N(C)C(=O)OC(C)(C)C [Example 334, tert-butyl methyl((2S,3S)-3-methyl-1-oxo-1-((3aS,4R,6aR)-2-(3-(trifluoromethyl)phenylsulfonyl)octahydrocyclopenta[c]pyrrol-4-ylamino)pentan-2-yl)carbamate] | 690
CC[C@H](C)[C@@H](C(=O)N[C@@H]1CC[C@H]2CN(S(=O)(=O)c3ccc(C(F)(F)F)cc3)C[C@H]21)N(C)C(=O)OC(C)(C)C [Example 335, tert-butyl methyl((2S,3S)-3-methyl-1-oxo-1-((3aS,4R,6aR)-2-(4-(trifluoromethyl)phenylsulfonyl)octahydrocyclopenta[c]pyrrol-4-ylamino)pentan-2-yl)carbamate] | 830
CN(C(=O)OC(C)(C)C)[C@@H](CC(C)(C)C)C(=O)N[C@H]1CC[C@@H]2CN(S(=O)(=O)c3cccc(C(F)(F)F)c3)C[C@@H]21 [Example 336, tert-butyl(S)-4,4-dimethyl-1-oxo-1-((3aR,4S,6aS)-2-(3-(trifluoromethyl)phenylsulfonyl)octahydrocyclopenta[c]pyrrol-4-ylamino)pentan-2-yl(methyl)carbamate] | 480
CN(C(=O)OC(C)(C)C)[C@@H](CC(C)(C)C)C(=O)N[C@H]1CC[C@@H]2CN(S(=O)(=O)c3ccc(C(F)(F)F)cc3)C[C@@H]21 [Example 337, tert-butyl(S)-4,4-dimethyl-1-oxo-1-((3aR,4S,6aS)-2-(4-(trifluoromethyl)phenylsulfonyl)octahydrocyclopenta[c]pyrrol-4-ylamino)pentan-2-yl(methyl)carbamate] | 780
CN(C(=O)OC(C)(C)C)[C@@H](CC(C)(C)C)C(=O)N[C@@H]1CC[C@H]2CN(S(=O)(=O)c3cccc(C(F)(F)F)c3)C[C@H]21 [Example 338, tert-butyl(S)-4,4-dimethyl-1-oxo-1-((3aS,4R,6aR)-2-(3-(trifluoromethyl)phenylsulfonyl)octahydrocyclopenta[c]pyrrol-4-ylamino)pentan-2-yl(methyl)carbamate] | 230
CN(C(=O)OC(C)(C)C)[C@@H](CC(C)(C)C)C(=O)N[C@@H]1CC[C@H]2CN(S(=O)(=O)c3ccc(C(F)(F)F)cc3)C[C@H]21 [Example 339, tert-butyl(S)-4,4-dimethyl-1-oxo-1-((3aS,4R,6aR)-2-(4-(trifluoromethyl)phenylsulfonyl)octahydrocyclopenta[c]pyrrol-4-ylamino)pentan-2-yl(methyl)carbamate] | 1110
CC(C)[C@@H](C(=O)N[C@@H]1CC[C@H]2CN(S(=O)(=O)c3cccc(C(F)(F)F)c3)C[C@H]21)N(C)C(=O)OC(C)(C)C [Example 340, tert-butyl methyl((S)-3-methyl-1-oxo-1-((3aS,4R,6aR)-2-(3-(trifluoromethyl)phenylsulfonyl)octahydrocyclopenta[c]pyrrol-4-ylamino)butan-2-yl)carbamate] | 1030
